According to US11214803B2, “Modulators of YAP1 expression” (Ionis Pharmaceuticals, Inc., priority 2019, dated 2022):
Strand notation (5' to 3'): a small letter for the sugar, then the base; units joined by * are phosphorothioate-linked, units joined directly phosphodiester-linked; [ ] holds rarer units or linkages, { } end groups; capitals alone tell only the bases. k = constrained ethyl (cEt); [5mC] = 5-methylcytosine; d = 2'-deoxy (DNA)

system: Yap1 mRNA; assay: Antisense inhibition of human Yap1 in A-431 cells by cEt gapmers, single dose (Example 2, RTS4814); assay type: cell-based; conditions: A-431 cells, 5,000 cells per well, free uptake, 2,000 nM modified oligonucleotide, approx. 48 hours, RTS4814, normalized to RIBOGREEN; Table 4; asterisk (*) = targets amplicon region of primer probe set
How it was run: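 A-431 cells (5,000/well) took up 2,000 nM 3-10-3 cEt gapmer by free uptake for ~48 h. Yap1 mRNA was quantified by qRT-PCR with primer probe set RTS4814, normalized to RIBOGREEN total RNA, and reported as % of untreated control.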

Point of comparison: “716553 (kA*kT*k[5mC]*d[5mC]*dA*d[5mC]*d[5mC]*dT*dG*dA*dG*d[5mC]*dA*k[5mC]*kT*k[5mC]; antisense) [Compound 716553]”, “YAP1 (% UTC)” value 54 % UTC. Against it:
- 716538 (antisense kT*k[5mC]*kT*dG*dA*dA*dA*d[5mC]*dT*d[5mC]*d[5mC]*dA*dA*kA*kT*k[5mC]) [Compound 716538] — higher, 77 % UTC
- 716409 (k[5mC]*kA*kG*dG*dA*dA*dG*dT*d[5mC]*dA*dT*d[5mC]*dT*kG*kG*kG; antisense) [Compound 716409] — higher, 99 % UTC

same assay, conditions: Table 5; A-431 cells, 5,000 cells per well, free uptake, 2,000 nM modified oligonucleotide, approx. 48 hours; RTS4814; normalized to RIBOGREEN; Yap1 mRNA relative to untreated control cells

For “716350 (k[5mC]*kT*k[5mC]*dG*dG*dA*d[5mC]*d[5mC]*dT*dG*d[5mC]*dG*dG*k[5mC]*kG*k[5mC]; antisense) [Compound 716350]”, the “YAP1 (% UTC)” value was 99 % UTC.

same assay, conditions: Table 6; A-431 cells, 5,000 cells per well, free uptake, 2,000 nM modified oligonucleotide, approx. 48 hours; RTS4814; normalized to RIBOGREEN; Yap1 mRNA relative to untreated control cells

Point of comparison: “716414 (kG*kT*kT*d[5mC]*dA*dT*dT*d[5mC]*d[5mC]*dA*dT*d[5mC]*dT*k[5mC]*k[5mC]*kT; antisense) [Compound 716414]”, “YAP1 (% UTC)” value 59 % UTC. Against it:
- 716456 (kA*k[5mC]*k[5mC]*dA*d[5mC]*dA*d[5mC]*dT*dA*dT*dT*dA*dT*kA*kA*kA; antisense) [Compound 716456] — higher, 96 % UTC
- 716417 (kT*kG*kT*dA*dA*dG*dA*dA*dA*dG*d[5mC]*dT*dT*kT*k[5mC]*kT; antisense) [Compound 716417] — higher, 78 % UTC
- 716366 (k[5mC]*kA*kG*dG*dT*d[5mC]*dG*dG*dT*d[5mC]*dT*d[5mC]*d[5mC]*kG*kA*kG; antisense) [Compound 716366] — higher, 95 % UTC
- 716348 (kA*k[5mC]*kG*dG*dA*dG*dG*d[5mC]*d[5mC]*dG*dG*dA*d[5mC]*kA*kG*k[5mC]; antisense) [Compound 716348] — higher, 107 % UTC

same assay, conditions: Table 18; A-431 cells, 5,000 cells per well, free uptake, 2,000 nM modified oligonucleotide, approx. 48 hours; RTS4814; normalized to RIBOGREEN; Yap1 mRNA as percent of untreated control

Point of comparison: “1074468 (k[5mC]*k[5mC]*kA*d[5mC]*d[5mC]*dG*dA*d[5mC]*d[5mC]*d[5mC]*dT*dG*d[5mC]*k[5mC]*kA*kA; antisense) [Compound 1074468]”, “YAP1 (% UTC)” value 34 % UTC. Against it:
- 1075620 (kG*kA*kT*dG*dA*dA*dG*dA*dA*dT*d[5mC]*dT*dA*kT*kA*kG; antisense) [Compound 1075620] — higher, 88 % UTC
- 1075396 (kA*kT*kT*dA*dT*d[5mC]*dG*d[5mC]*dA*d[5mC]*dA*dT*dA*k[5mC]*kA*kT; antisense) [Compound 1075396] — higher, 89 % UTC

same assay, conditions: Table 19; A-431 cells, 5,000 cells per well, free uptake, 2,000 nM modified oligonucleotide, approx. 48 hours; RTS4814; normalized to RIBOGREEN; Yap1 mRNA as percent of untreated control

Point of comparison: “1075813 (kA*k[5mC]*kT*dA*dA*dT*dA*dT*dG*d[5mC]*dA*dA*d[5mC]*kT*k[5mC]*kT; antisense) [Compound 1075813]”, “YAP1 (% UTC)” value 4 % UTC. Against it:
- 1075333 (kA*kG*kT*dT*dA*dA*d[5mC]*dA*dA*dA*dG*d[5mC]*dG*kG*kG*kT; antisense) [Compound 1075333] — higher, 14 % UTC
- 1074373 (antisense kG*k[5mC]*kT*dT*dT*dG*dG*dT*dT*dG*dA*dT*dA*kG*kT*kA) [Compound 1074373] — higher, 26 % UTC

same assay, conditions: Table 20; Yap1 mRNA, percent of untreated control; 3-10-3 cEt gapmers targeting SEQ ID NO.: 1 and 2

“1074502 (kA*kA*k[5mC]*dT*dA*d[5mC]*dA*dA*dT*dA*dA*d[5mC]*d[5mC]*kA*kT*k[5mC]; antisense) [Compound 1074502]” was tested, and the “YAP1 (% UTC)” value was 31 % UTC.

same assay, conditions: Table 21; Yap1 mRNA, percent of untreated control; 3-10-3 cEt gapmers targeting SEQ ID NO.: 1 and 2

Point of comparison: “1074791 (k[5mC]*kT*k[5mC]*d[5mC]*dA*dT*d[5mC]*dA*dA*d[5mC]*d[5mC]*dA*dT*kA*kA*kG; antisense) [Compound 1074791]”, “YAP1 (% UTC)” value 20 % UTC. Against it:
- 1075431 (antisense kT*kA*kA*d[5mC]*dT*dA*dA*dA*d[5mC]*dT*dG*dA*dT*kT*k[5mC]*k[5mC]) [Compound 1075431] — higher, 74 % UTC

same assay, conditions: Table 22; Yap1 mRNA as percent of untreated control; 3-10-3 cEt gapmers; single dose

Point of comparison: “1075624 (kA*kT*k[5mC]*dT*dA*dT*dA*dA*d[5mC]*d[5mC]*d[5mC]*dT*dT*kA*kT*kT; antisense) [Compound 1075624]”, “YAP1 (% UTC)” value 91 % UTC. Against it:
- 1074248 (antisense kG*kA*kT*d[5mC]*dG*dA*dT*dG*dT*dG*dA*dT*dT*kT*kA*kA) [Compound 1074248] — lower, 29 % UTC

same assay, conditions: Table 24; Yap1 mRNA as percent of untreated control; 3-10-3 cEt gapmers targeting SEQ ID NO.: 1, and 2

Point of comparison: “1074730 (antisense kT*kA*kT*d[5mC]*dA*d[5mC]*dA*dG*dT*dA*d[5mC]*dT*dG*k[5mC]*kT*kA) [Compound 1074730]”, “YAP1 (% UTC)” value 46 % UTC. Against it:
- 1076522 (antisense kG*k[5mC]*kA*d[5mC]*dT*dA*dA*dA*dG*dG*dA*dG*dT*k[5mC]*kA*kT) [Compound 1076522] — lower, 35 % UTC
- 1075722 (kG*kT*kT*dA*dA*dA*dT*dA*d[5mC]*d[5mC]*dT*dT*d[5mC]*kT*kA*kG; antisense) [Compound 1075722] — higher, 88 % UTC
- 1076330 (kG*kA*kA*dT*dT*dA*dT*dA*d[5mC]*dT*dG*dG*d[5mC]*kT*kA*k[5mC]; antisense) [Compound 1076330] — lower, 3 % UTC

same assay, conditions: Table 25; Yap1 mRNA as percent of untreated control; 3-10-3 cEt gapmers targeting SEQ ID NO.: 1, and 2

Point of comparison: “1075083 (antisense k[5mC]*kA*kA*d[5mC]*dA*dA*d[5mC]*dA*d[5mC]*dT*d[5mC]*d[5mC]*dT*k[5mC]*kT*kT) [Compound 1075083]”, “YAP1 (% UTC)” value 54 % UTC. Against it:
- 1076299 (k[5mC]*kG*kT*dT*dA*dT*dA*dA*dA*dG*dA*d[5mC]*d[5mC]*k[5mC]*kA*kA; antisense) [Compound 1076299] — lower, 3 % UTC
- 1075691 (k[5mC]*kG*kT*d[5mC]*dA*dA*dA*dA*dT*dT*dA*dA*d[5mC]*kA*kG*kA; antisense) [Compound 1075691] — lower, 46 % UTC
- 1074955 (antisense k[5mC]*k[5mC]*k[5mC]*dG*dG*dG*dT*dT*dT*dT*dT*dG*dT*k[5mC]*kA*kT) [Compound 1074955] — higher, 93 % UTC
- 1076459 (antisense k[5mC]*kT*kT*d[5mC]*dA*dA*d[5mC]*dA*dA*dG*dA*d[5mC]*dA*kG*kG*kT) [Compound 1076459] — lower, 4 % UTC

same assay, conditions: Table 32; Yap1 mRNA, percent of untreated control; 3-10-3 cEt gapmers targeting SEQ ID NO.: 1, and 2

Point of comparison: “1076210 (kA*kT*kT*dT*dA*dT*dA*dT*dG*d[5mC]*dT*d[5mC]*d[5mC]*k[5mC]*kT*k[5mC]; antisense) [compound 1076210]”, “YAP1 (% UTC)” value 20 % UTC. Against it:
- 1074258 (antisense kA*kT*kA*dT*dT*d[5mC]*dT*dG*d[5mC]*dT*dG*d[5mC]*dA*k[5mC]*kT*kG) [compound 1074258] — higher, 36 % UTC
- 1076018 (kA*k[5mC]*kT*dA*dA*dT*dA*dG*dG*dA*dT*dG*dG*kA*kT*kT; antisense) [compound 1076018] — lower, 15 % UTC
- 1076274 (kT*kG*kA*dG*dA*dA*dT*dA*dG*dA*dG*d[5mC]*dA*kG*kG*kT; antisense) [compound 1076274] — lower, 9 % UTC
- 1074162 (kA*kG*kG*d[5mC]*dG*dA*dG*d[5mC]*dG*dA*dG*dG*dG*k[5mC]*kT*kA; antisense) [compound 1074162] — higher, 101 % UTC
- 1075954 (kA*kT*kT*dT*dA*dA*dG*dG*d[5mC]*dT*dG*dT*dG*kT*kT*k[5mC]; antisense) [compound 1075954] — higher, 50 % UTC

same assay, conditions: Table 33; Yap1 mRNA, percent of untreated control; 3-10-3 cEt gapmers targeting SEQ ID NO.: 1, and 2

Point of comparison: “1076019 (k[5mC]*kA*k[5mC]*dT*dA*dA*dT*dA*dG*dG*dA*dT*dG*kG*kA*kT; antisense) [compound 1076019]”, “YAP1 (% UTC)” value 12 % UTC. Against it:
- 1075891 (antisense kA*kG*kA*dT*dT*dA*dA*dA*dA*dG*dT*dA*dG*kG*k[5mC]*k[5mC]) [compound 1075891] — higher, 89 % UTC

same assay, conditions: Yap1 mRNA as percent of untreated control; A-431 cells; 3-10-3 cEt gapmers targeting SEQ ID NO.: 1, and 2; Table 30

Point of comparison: “1075344 (antisense kT*kA*kA*d[5mC]*dT*dA*dA*dA*dA*dG*dG*dG*dA*kG*kT*kA) [compound 1075344]”, “YAP1 (% UTC)” value 91 % UTC. Against it:
- 1075952 (antisense k[5mC]*kT*kA*dT*dA*dT*dA*d[5mC]*d[5mC]*dT*dG*d[5mC]*dT*kT*k[5mC]*kT) [compound 1075952] — lower, 41 % UTC

same assay, conditions: Yap1 mRNA as percent of untreated control; A-431 cells; 3-10-3 cEt gapmers targeting SEQ ID NO.: 1, and 2; Table 31

Point of comparison: “1074961 (antisense kT*k[5mC]*k[5mC]*dT*d[5mC]*d[5mC]*dT*dT*dA*dA*d[5mC]*d[5mC]*d[5mC]*kG*kG*kG) [compound 1074961]”, “YAP1 (% UTC)” value 93 % UTC. Against it:
- 1075601 (antisense kA*k[5mC]*kA*d[5mC]*dT*dA*dT*dA*dA*dT*d[5mC]*dT*dG*kA*k[5mC]*k[5mC]) [compound 1075601] — lower, 50 % UTC
- 1075857 (antisense k[5mC]*kT*kT*dA*dA*dA*d[5mC]*dA*dA*dT*d[5mC]*d[5mC]*d[5mC]*kT*kA*kA) [compound 1075857] — lower, 69 % UTC
- 1075281 (antisense k[5mC]*kA*kG*d[5mC]*dA*dA*dA*dA*dG*dT*dA*d[5mC]*d[5mC]*kA*kT*kG) [compound 1075281] — lower, 36 % UTC
- 1075153 (kA*kT*kT*dA*dT*dA*dA*dT*dG*dG*dG*dA*dG*kG*kA*kT; antisense) [compound 1075153] — lower, 38 % UTC
- 1074545 (kA*k[5mC]*kT*d[5mC]*d[5mC]*d[5mC]*d[5mC]*dT*dA*dG*dG*d[5mC]*dA*k[5mC]*kT*kA; antisense) [compound 1074545] — lower, 18 % UTC
